From patent US9962341B2, “Active pharmaceutical ingredient (API) comprising cannabinoids for use in the treatment of cancer” (GW Pharma Limited, priority 2014, dated 2018)

Key:
Assay type in all cases: cell-based
[1] = tested on: WM115; experiment: Cell viability (CellTiter-Blue, 72 h), WM115 melanoma cells; conditions: WM115, 1% FBS, 72 h; read-out: Cell line IC50 value
Protocol: (§1) The following cell lines were tested in this example: Lung Cancer (A549, NCI-H460); Pancreatic cancer (PANC1, Mia-Pa-Ca-2); Melanoma (WM115, A375); Ovarian cancer (OVCAR3, SKOV3); Gastric cancer (MKN45, HGC-27); Renal cancer (ACHN) and Bladder Cancer (RT112).
(§2) Each tumour cell line was maintained in vitro in RPMI 1640+10% heat inactivated FBS and 2 mM L-glutamine (growth media) at 37° C. in 5% CO2 and humidified conditions. The cells were harvested, washed, re-suspended into growth medium and counted. The cells were re-suspended into assay media (RPMI 1640+5% heat inactivated FBS+ and 2 mM L-glutamine) at 4×10^4 cells/ml (dependent upon cell type) and plated into the middle 240 wells of 384 well tissue culture plates (Corning CellBind, black-wall plates) 25 μl/well aliquots; 50 μl of growth media was aliquoted into the outer wells. There were 3 plates for each cell line.
(§3) The plates were incubated overnight at 37° C., in 5% humidified CO2.
(§4) The phytocannabinoid test compounds were prepared in 100% DMSO vehicle at a stock concentration of 20 and 40 mM.
(§5) Starting with the 20 mM stock in DMSO, this was serially diluted (2 fold) in DMSO in a 96-well plate, to 20 (no dilution), 10, 5, 2.5, 1.25, 0.625, 0.315, 0.157 and […]. Following this, 10 ul of each compound dilution was diluted into 990 ul of 1% (v/v) FBS media in a deep well block making the final concentrations of 200, 100, 50, 25, 12.5, 6.25, 3.125, 1.56 and 0.79 μM (2× final assay concentrations and 1% DMSO).
(§6) An equal volume of each cannabinoid in the combination (stock concentration 40 mM) was mixed together to make a stock of 20 mM of each cannabinoid in DMSO. This was serially diluted (2 fold) in DMSO in a 96-well plate, to 20 (no dilution), 10, 5, 2.5, 1.25, 0.625, 0.315, 0.157 and […]. Following this, 10 ul of each combination dilution was diluted into 990 ul of 1% (v/v) FBS media in a deep well block making the final concentrations of 200, 100, 50, 25, 12.5, 6.25, 3.125, 1.56 and 0.79 μM (2× final assay concentrations and 1% DMSO).
(§7) Cisplatin (stock of 1 mg/ml=3.33 mM in water) was diluted in 1% FBS media to give a stock concentration of 1 mM. This was then diluted in 1% FBS media from the stock solution to 200 μM, then serially diluted (3-fold) in 1% FBS media to 200 (no dilution), 66.66, 22.22, 7.41, 2.47, 0.82, 0.27, 0.09, 0.03 μM (2× final assay concentrations; no DMSO).
(§8) The plates were incubated for 72 h at 37° C. in 5% humidified CO2. To develop the plates, at 72 h, 10 μl of CellTiter-Blue™ reagent was added to each test/blank well.
(§9) The plates were incubated at 37° C., 5% humidified CO2. Fluorescence was measured using a Flex II Station plate reader (570 nm excitation wavelength, 600 nm emission wavelength, 590 nm cut-off) after 3 h.
(§10) The phytocannabinoid compounds CBD, CBGA, CBG, CBDA, THCV and THC were tested on a panel of lung (A549, NCI-H460), pancreatic (PANC1, Mia-Pa-Ca-2), melanoma (WM115, A375), ovarian (OVCAR3, SKOV3), gastric (MKN45, HGC-27), renal (ACHN) and bladder (RT112) cancer cell lines according to the protocol for 72 h in media containing 1% FBS.
(§11) The IC50 values for each phytocannabinoid and combination of CBD with the other phytocannabinoids was calculated for each cell line. The raw data values expressed in relative fluorescent units were normalised to the vehicle for each individual plate and any reduction in fluorescence indicated a decrease in viability.
(§12) This calculation was as described in Example 1 above.

[2] = tested on: A375; experiment: Cell viability (CellTiter-Blue, 72 h), A375 melanoma cells; conditions: A375, 1% FBS, 72 h; read-out: Cell line IC50 value
Protocol: as §1, §2, §3, §4, §5, §6, §7, §8, §9, §10, §11, §12

[3] = tested on: RT112; experiment: Cell viability (CellTiter-Blue, 72 h), RT112 bladder cancer cells; conditions: RT112, 1% FBS, 72 h; read-out: Cell line IC50 value
Protocol: as §1, §2, §3, §4, §5, §6, §7, §8, §9, §10, §11, §12

[4] = tested on: SKOV3; experiment: Cell viability (CellTiter-Blue, 72 h), SKOV3 ovarian cancer cells; conditions: SKOV3, 1% FBS, 72 h; read-out: Cell line IC50 value
Protocol: as §1, §2, §3, §4, §5, §6, §7, §8, §9, §10, §11, §12

[5] = tested on: HGC-27; experiment: Cell viability (CellTiter-Blue, 72 h), HGC-27 gastric cancer cells; conditions: HGC-27, 1% FBS, 72 h; read-out: Cell line IC50 value
Protocol: as §1, §2, §3, §4, §5, §6, §7, §8, §9, §10, §11, §12

[6] = tested on: OVCAR3; experiment: Cell viability (CellTiter-Blue, 72 h), OVCAR3 ovarian cancer cells; conditions: OVCAR3, 1% FBS, 72 h; read-out: Cell line IC50 value
Protocol: as §1, §2, §3, §4, §5, §6, §7, §8, §9, §10, §11, §12

[7] = tested on: MKN45; experiment: Cell viability (CellTiter-Blue, 72 h), MKN45 gastric cancer cells; conditions: MKN45, 1% FBS, 72 h; read-out: Cell line IC50 value
Protocol: as §1, §2, §3, §4, §5, §6, §7, §8, §9, §10, §11, §12

[8] = tested on: PANC-1; experiment: Cell viability (CellTiter-Blue, 72 h), PANC-1 pancreatic cancer cells; conditions: Homo sapiens; PANC-1, 1% FBS, 72 h; read-out: Cell line IC50 value
Protocol: as §1, §2, §3, §4, §5, §6
(§13) Gemcitabine SOC was prepared in 100% DMSO to give a stock concentration of 20 mM. This was then serially diluted (3 fold) in DMSO in a 96-well plate, to 20 (no dilution), 6.6, 2.2, 0.741, 0.247, 0.082, 0.027, 0.009 and 0.003 mM. Following this, 10 ul of each dilution was further diluted into 990 ul of 1% (v/v) FBS media making the final concentrations of 200 (no dilution), 66.66, 22.22, 7.41, 2.47, 0.82, 0.27, 0.09, 0.03 μM (2× final assay concentrations and 1% DMSO).
as §8, §9, §10, §11, §12

[9] = tested on: Mia-Pa-Ca-2; experiment: Cell viability (CellTiter-Blue, 72 h), Mia-Pa-Ca-2 pancreatic cancer cells; conditions: Homo sapiens, MIA PaCa-2, 72 h, read-out: Cell line IC50 value
Protocol: as §1, §2, §3, §4, §5, §6, §13, §8, §9, §10, §11, §12

| SMILES | IC50 [1] [µM] | IC50 [2] [µM] | IC50 [3] [µM] | IC50 [4] [µM] | IC50 [5] [µM] | IC50 [6] [µM] | IC50 [7] [µM] | IC50 [8] [µM] | IC50 [9] [µM] |
| --- | --- | --- | --- | --- | --- | --- | --- | --- | --- |
| N.N.[Cl][Pt][Cl] [Cisplatin, reference compound] | 35 | 6.3 | 27 | 4.5 | 47 | 7.7 | 9.7 | – | – |
| Nc1ccn([C@@H]2O[C@H](CO)[C@@H](O)C2(F)F)c(=O)n1 [Gemcitabine, reference compound] | – | – | – | – | – | – | – | > 100 | > 100 |
